# Test results: patent US20120295866A1, “Synthesis And Use Of Glycoside Pro-Drug Analogs” (Nutek Pharma Ltd., priority 2011, published 2012)
# “Also recorded” adds a separate entry of the source.
# Assays:
# rats = experiment: Clinical observations of rats during administration of propofol analogs in the pharmacokinetics study
# Experimental: (§1) Blood samples were to be taken pre-dose, during dose and post dose at designated intervals, with the blood quickly processed and stored at −70° C. until analysis.
# (§2) Formulations were prepared on the morning of the dosing day and each was passed through a 0.22 μm filter prior to being administered to animals. A standard dose of 0.168 mmol/Kg per analog was administered to each of the rats. […] Analog stability in the formulations was verified by preparing each formulation and harvesting 200 μL aliquots at 0, 1, 2 and 8 hr while standing at room temperature. After harvesting, each sample was immediately frozen in dry ice until analysis; concentrations of test compounds in the samples were examined by HPLC-UV.
# (§3) The animals were surgically prepared with indwelling cannula, double cannulation in carotid artery and jugular vein for i.v. infusion. The anesthetic pentobarbital was used during the surgery, and the animals were allowed to recover 3-5 days after surgery before the formulation was dosed. The dose formulation was administered intravenously via the jugular vein cannula. The 16.8 μmol/mL formulation was administered i.v. at a rate of 1 mL/Kg/min for 10 min.
# [1] = Pharmacokinetics: concentration of prodrug (or propofol) in rat plasma after intravenous infusion, LC/MS/MS; conditions: for AUC(0-inf) / AUC(0-t) / Cmax / MRT inf / Tmax / Vd / clearance / half-life: male, Sprague-Dawley, rat, plasma, iv, 0.168 mmol/Kg; for Mean concentration of prodrug and propofol in rat plasma after intravenous infusion administration: analyte = administered compound
# Experimental: as §1, §2, §3
# (§4) Approximately 0.20 mL blood was collected at each designated time point from carotid artery via a catheter. A total of 12 plasma samples were taken from each animal: 1 pre-dose; 2 during the dose (5 into the 10 min infusion and one just prior termination of the 10 min infusion) and 9 post-infusion at 2, 5, 15, 30 min and 1, 2, 3, 4, and 6 hr post-dose. All blood samples were transferred into plastic microcentrifuge tubes containing 5 μL of K2-EDTA (0.5M) as anti-coagulant and placed on ice until processed for plasma. Blood samples were processed for plasma by centrifugation at approximately 5° C. Plasma samples were then stored in 1.5 mL tubes, quick frozen over dry ice and kept at −70±10° C. until LC/MSMS analysis.
# (§5) For each, a minimum of 6 standard point curve runs in duplicates, and minimum of 5 standards were back calculated to within ±20% of their nominal concentrations. The LLOQ of each test article in plasma was established and 6 QC samples were included in assay runs of samples to ensure assay performance.
# (§6) Plasma concentration versus time data was analyzed by non-compartmental approaches using the WinNonlin software program (version 5.2, Pharsight, Mountain View, Calif.) and the pharmacokinetic parameters T½, CL, Vss, AUC(0-t), AUC(0-inf), MRT, and graphs of plasma concentration versus time calculated for each.
# [2] = Pharmacokinetics: concentration of propofol in rat plasma after intravenous infusion of each pro-drug, LC/MS/MS; conditions: for Mean Concentration of Propofol in Rat Plasma After Intravenous Administration: analyte propofol from the administered compound; for pro-drug efficiency, release of propofol: releasing the propofol in a matter of minutes after infusion, rat
# Experimental: as §1, §2, §3, §4, §5, §6
# [3] = Solubility determination of propofol analogs in D2O by 1H NMR with DSS internal standard; conditions: for solubility: D2O, water, thermodynamic from solid
# Experimental: Thus the soapy-like solutions obtained were diluted until opalescent and diluted further until the opalescence visually disappeared.
# [4] = time post-10 min i.v. infusion, 0.168 mmol/Kg
smiles,measurement,setting,value
"CC(C)c1cccc(C(C)C)c1O [Propofol, 2,6-diisopropylphenol, reference compound]",Clinical Observation: Rats soporous at,rats; [4],Rats soporous at about 4 min and
same,Clinical Observation: recovered at,"rats; time post-10 min infusion, 5% cremophor vehicle",recovered at about 1.5 hr
same,AUC(0-inf),[1],12.6 µM·h
same,AUC(0-t),[1],10.6 µM·h
same,Cmax,[1],31.9 µM
same,MRT inf,[1],209 min
same,Tmax,[1],10.8 min
same,Vd,[1],61.2 L/kg
same,clearance,[1],265 mL/min/kg
same,half-life,[1],383 min
same,Mean Concentration of Propofol in Rat Plasma After Intravenous Administration,[2]; Time 0 h (pre-dose),BQL
same,solubility,[3],1.1 mM
CC(C)c1cccc(C(C)C)c1OC(=O)OCCO[C@@H]1O[C@H](CO)C(O[C@H]2O[C@H](CO)[C@@H](O)[C@H](O)[C@H]2O)[C@H](O)[C@H]1O (stereo partly drawn) [Compound 24],Clinical Observation: recovered at,rats; [4],recovered at about 30 min
same,Mean concentration of prodrug and propofol in rat plasma after intravenous infusion administration,[1]; Time 0 h (pre-dose),BQL
same,Mean concentration of prodrug and propofol in rat plasma after intravenous infusion administration,[1]; Time 2.166 h,BQL
same,Mean concentration of prodrug and propofol in rat plasma after intravenous infusion administration,[1]; Time 4.166 h,BQL
same,Mean concentration of prodrug and propofol in rat plasma after intravenous infusion administration,[1]; Time 6.166 h,BQL
same,AUC(0-inf),[1],0.791 µM·h
same,AUC(0-t),[1],0.786 µM·h
same,Cmax,[1],8.1 µM
same,MRT inf,[1],12.4 min
same,Tmax,[1],8.4 min
same,Vd,[1],120 L/kg
same,clearance,[1],5800 mL/min/kg
same,half-life,[1],53.2 min
same,Mean Concentration of Propofol in Rat Plasma After Intravenous Administration,[2]; Time 0 h (pre-dose),BQL
same,"pro-drug efficiency, release of propofol",[2],very efficient pro-drugs
same,solubility,[3],> 20 mM
CC(C)c1cccc(C(C)C)c1OC(=O)OCCO[C@@H]1O[C@H](CO)[C@@H](O)[C@H](O)[C@H]1O [Compound 9],Clinical Observation: recovered at,rats; [4],recovered at about 30 min
same,Mean concentration of prodrug and propofol in rat plasma after intravenous infusion administration,[1]; Time 0 h (pre-dose),BQL
same,Mean concentration of prodrug and propofol in rat plasma after intravenous infusion administration,[1]; Time 0.083 h (during 10 min infusion),BQL
same,Mean concentration of prodrug and propofol in rat plasma after intravenous infusion administration,[1]; Time 0.167 h (end of 10 min infusion),BQL
same,Mean concentration of prodrug and propofol in rat plasma after intravenous infusion administration,[1]; Time 0.2 h,BQL
same,Mean concentration of prodrug and propofol in rat plasma after intravenous infusion administration,[1]; Time 0.25 h,BQL
same,Mean concentration of prodrug and propofol in rat plasma after intravenous infusion administration,[1]; Time 0.417 h,BQL
same,Mean concentration of prodrug and propofol in rat plasma after intravenous infusion administration,[1]; Time 0.667 h,BQL
same,Mean concentration of prodrug and propofol in rat plasma after intravenous infusion administration,[1]; Time 1.166 h,BQL
same,Mean concentration of prodrug and propofol in rat plasma after intravenous infusion administration,[1]; Time 2.166 h,BQL
same,Mean concentration of prodrug and propofol in rat plasma after intravenous infusion administration,[1]; Time 3.166 h,BQL
same,Mean concentration of prodrug and propofol in rat plasma after intravenous infusion administration,[1]; Time 4.166 h,BQL
same,Mean concentration of prodrug and propofol in rat plasma after intravenous infusion administration,[1]; Time 6.166 h,BQL
same,Mean Concentration of Propofol in Rat Plasma After Intravenous Administration,[2]; Time 0 h (pre-dose),BQL
same,"pro-drug efficiency, release of propofol",[2],very efficient pro-drugs
same,solubility,[3],9.4 mM
"CC(C)c1cccc(C(C)C)c1OC(=O)OCCCO[C@@H]1O[C@H](CO)C(O[C@H]2O[C@H](CO)[C@@H](O)[C@H](O)[C@H]2O)[C@H](O)[C@H]1O (stereo partly drawn) [Compound 25, 1-((2′,6′-diisopropylphenoxy)carbonyloxy)propyl-β-D-maltose]",Clinical Observation: recovered at,rats; [4],recovered at about 35 min
same,Mean concentration of prodrug and propofol in rat plasma after intravenous infusion administration,[1]; Time 0 h (pre-dose),BQL
same,Mean concentration of prodrug and propofol in rat plasma after intravenous infusion administration,[1]; Time 3.166 h,BQL
same,Mean concentration of prodrug and propofol in rat plasma after intravenous infusion administration,[1]; Time 4.166 h,BQL
same,Mean concentration of prodrug and propofol in rat plasma after intravenous infusion administration,[1]; Time 6.166 h,BQL
same,AUC(0-inf),[1],8.57 µM·h
same,AUC(0-t),[1],8.57 µM·h
same,Cmax,[1],68.4 µM
same,MRT inf,[1],4.62 min
same,Tmax,[1],10.2 min
same,Vd,[1],1.51 L/kg
same,clearance,[1],337 mL/min/kg
same,half-life,[1],15.2 min
same,Mean Concentration of Propofol in Rat Plasma After Intravenous Administration,[2]; Time 0 h (pre-dose),BQL
same,"pro-drug efficiency, release of propofol",[2],very efficient pro-drugs
same,solubility,[3],> 20 mM
CC(C)c1cccc(C(C)C)c1OC(=O)NCCO[C@@H]1O[C@H](CO)[C@@H](O)[C@H](O)[C@H]1O [Compound 17],"Clinical Observation (adverse findings, individual rats)","rats; times post-10 min infusion, vehicle 10% Tween80, cloudy",died at 15 min; also recorded: died at 1.5 h from hematuria
same,Mean concentration of prodrug and propofol in rat plasma after intravenous infusion administration,[1]; Time 0 h (pre-dose),BQL
same,AUC(0-inf),[1],71.8 µM·h
same,AUC(0-t),[1],61.6 µM·h
same,Cmax,[1],313 µM
same,MRT inf,[1],16.6 min
same,Tmax,[1],10.2 min
same,Vd,[1],0.657 L/kg
same,clearance,[1],39.1 mL/min/kg
same,half-life,[1],26.2 min
same,Mean Concentration of Propofol in Rat Plasma After Intravenous Administration,[2]; Time 0 h (pre-dose),BQL
same,Mean Concentration of Propofol in Rat Plasma After Intravenous Administration,[2]; Time 2.166 h,BQL
same,Mean Concentration of Propofol in Rat Plasma After Intravenous Administration,[2]; Time 3.166 h,BQL
same,Mean Concentration of Propofol in Rat Plasma After Intravenous Administration,[2]; Time 4.166 h,BQL
same,Mean Concentration of Propofol in Rat Plasma After Intravenous Administration,[2]; Time 6.166 h,BQL
same,solubility,[3],1.6 mM
same,water solubility (in words),[3]; reason for cosolvent in the dose formulation,poor water solubility
CC(C)c1cccc(C(C)C)c1OC(=O)OCCCO[C@H]1O[C@H](CO)[C@@H](O)[C@H](O)[C@H]1O [Compound 33],Clinical Observation: Rats soporous at,rats; [4],Rats soporous at about 3 min and
same,Clinical Observation: recovered at,rats; [4],recovered at about 30 min
same,Mean concentration of prodrug and propofol in rat plasma after intravenous infusion administration,[1]; Time 0 h (pre-dose),BQL
same,Mean concentration of prodrug and propofol in rat plasma after intravenous infusion administration,[1]; Time 0.25 h,BQL
same,Mean concentration of prodrug and propofol in rat plasma after intravenous infusion administration,[1]; Time 0.417 h,BQL
same,Mean concentration of prodrug and propofol in rat plasma after intravenous infusion administration,[1]; Time 0.667 h,BQL
same,Mean concentration of prodrug and propofol in rat plasma after intravenous infusion administration,[1]; Time 1.166 h,BQL
same,Mean concentration of prodrug and propofol in rat plasma after intravenous infusion administration,[1]; Time 2.166 h,BQL
same,Mean concentration of prodrug and propofol in rat plasma after intravenous infusion administration,[1]; Time 3.166 h,BQL
same,Mean concentration of prodrug and propofol in rat plasma after intravenous infusion administration,[1]; Time 4.166 h,BQL
same,Mean concentration of prodrug and propofol in rat plasma after intravenous infusion administration,[1]; Time 6.166 h,BQL
same,AUC(0-t),[1],0.00304 µM·h
same,Cmax,[1],0.0231 µM
same,Tmax,[1],10.2 min
same,Mean Concentration of Propofol in Rat Plasma After Intravenous Administration,[2]; Time 0 h (pre-dose),BQL
same,Mean Concentration of Propofol in Rat Plasma After Intravenous Administration,[2]; Time 4.166 h,BQL
same,Mean Concentration of Propofol in Rat Plasma After Intravenous Administration,[2]; Time 6.166 h,BQL
same,"pro-drug efficiency, release of propofol",[2],very efficient pro-drugs
same,solubility,[3],5.7 mM
